In patent US20150313913A1, “POSITIVE ALLOSTERIC MODULATORS OF THE GABA-A RECEPTOR IN THE TREATMENT OF AUTISM” (UNIVERSITY OF WASHINGTON THROUGH ITS CENTER FOR …, priority 2013, published 2015):
Entries after “also recorded” stand apart in the source; their conditions may differ.

Assays:
wild-type mice = assay: Three-chamber social preference test; format: in vivo; conditions: 0.0625 mg/kg, listed as CLZ
Experimental: The test was performed as described previously^34 with minor modifications. […] Each partition has a square opening (5×5 cm) in the bottom center. A cylindrical wire cage (10.5 cm diameter; GALAXY PENCIL CUP™ […] D[…]™) was used as an inanimate object or the cage housing a stranger mouse. A cylindrical bottle filled with water was placed on the top of the wire cup to prevent the test mouse from climbing to the top of the cup. The three-chamber unit and wire cups were cleaned with 70% ethanol and wiped with paper towels between each trail. […] The mouse was allowed to freely explore each chamber. […] The wire cage on the other side remained empty (E). […] Thus, the test mouse would now have the choice between a mouse that was already familiar (M1) and a new stranger mouse (M2). […] The movement of the mouse was recorded by a USB webcam (LIFECAM™ HD-6000, MICROSOFT™) and PC-based video capture software (WINAVI™ Video Capture, ZJ MEDIA DIGITAL TECHNOLOGY™). The recorded video file was further analyzed by off-line video tracking software (ETHOVISION™ XT 7.0).
Oral administration is specifically contemplated for the methods described herein, and is well known for both benzodiazepines and non-BDZ GABA-A enhancers as described herein.

C57BL/6J mice [1] = assay: Open field test; format: in vivo
Experimental: (§1) Open field test was performed as previously described (Han et al., 2012). 50×50 cm square open field arena with non-transparent white Plexiglas was used in this study. During the 10 min of trial, total distance moved, circling behavior (a complete 360-degree turn of nose angle with respect to the body center) and time in center (20×20 cm imaginary square) were measured by the video-tracking software (EthoVision XT 8.5, Noldus Technology).

BTBR mice [2] = assay: Open field test; format: in vivo
Experimental: as §1

BTBR mice [3] = assay: Context-dependent fear conditioning test; format: in vivo
Description: The contextual fear-conditioning chamber was a square arena (25×25 cm) with clear PLEXIGLAS™ walls and a metal grid floor connected to a circuit board that delivered shocks to the metal grid (COULBOURN INSTRUMENTS™). An analog camera was attached on top of the chamber. The camera and the circuit board were connected to a personal computer, and its software (FREEZE FRAME™ 2.0, ACTIMETRICS™) controlled the circuit and recorded the data. The chamber was cleaned with 70% ethanol and wiped with paper towels before each session. In the habituation session, a test mouse was placed in the chamber and allowed to explore for 2 min^66-69. Immediately after habituation, the test mouse received a single mild foot shock (2 s, 0.5 mA). After staying in the chamber one more min, the mouse was removed from the chamber. For the 30-min short-term memory test, the mouse was returned to the context 30 min after the end of the training session. For 24-hr long-term memory test, the mouse was returned to the context 24 hr after the training session. The movement of mice was also recorded by a USB webcam (LIFECAM™ HD-6000, MICROSOFT™) and PC-based video capture software (WINAVI™ Video Capture, ZJ MEDIA DIGITAL TECHNOLOGY™) for 2 min. The recorded video file was further analyzed by off-line video tracking software (ETHOVISION™ XT 7.0, NOLDUS TECHNOLOGY™). The freezing scores were calculated by dividing the test session into 1 min bouts and averaging together all 2 min for each animal. All data shown.
Freezing behavior is defined as the period during which the velocity of the test mouse is less than 1.75 cm/s, and non-freezing behavior is defined as the period during which the velocity of the mouse is greater than 2 cm/s.

[4] = cited from earlier work
C57BL/6J mice [5] = assay: Open-field reciprocal social interaction test; format: in vivo; conditions: same treatment
Experimental: (§2) A test mouse and an age- and gender-matched stimulus mouse with a mixed C57BL/6J×129 genetic background were introduced in an open field arena (50×50 cm). Mice were socially naïve with each other. The social interactions of mice were recorded by USB webcam (LifeCam HD-6000, Microsoft) and PC-based video capture software (WinAVI Video Capture, ZJ Media Digital Technology) for 10 min.

BTBR mice [6] = assay: Open-field reciprocal social interaction test; format: in vivo; conditions: for nose-to-nose interaction with stranger mouse / total (reciprocal) social interaction with stranger mouse: low dose (0.05 mg/kg), Pre/CLZ/Post at one-week intervals, 0.05 mg/kg
Experimental: as §2

[7] = cited from earlier work; remark: listed apart in the source
[8] = cited from earlier work; remark: listed apart in the source

For `O=C1CN=C(c2ccccc2Cl)c2cc([N+](=O)[O-])ccc2N1` [Clonazepam], the “social interaction, 3-chamber social preference test” value (wild-type mice) was “no effect; also recorded: absent; also recorded: not changed”, the “anxiety-like behavior: avoidance of the center of an open field” value (C57BL/6J mice [1]; low doses of clonazepam) was “little effect” and the “hyperactivity (total distance moved) and circling behavior” value (C57BL/6J mice [1]; low-dose clonazepam) was “unaffected”. The “visits to center of open field (indicator of abnormally low anxiety)” value (BTBR mice [2]; 0.05 mg/kg) was “changed toward the values for C57BL/6J mice”, the “locomotor activity under chronic low dose” value (BTBR mice [2]; 0.05 mg/kg daily for 14 days) was “did not cause any increase in locomotor activity; also recorded: did not have any effect” and the “tolerance to sedative effect (locomotor activity Day 14 vs Day 1)” value (BTBR mice [2]; 1 mg/kg (high dose) for 14 days) was “significantly increased locomotor activity; also recorded: caused significant tolerance”. The “locomotor activity on Day 14 compared to Day 1” value (BTBR mice [2]; 1 mg/kg for 14 days) was 222±42%, the “hyperactivity, total distance moved” value (BTBR mice [2]; single injection 0.05 mg/kg) was “significantly reduced” and the “stereotyped circling behavior, number of 360° rotations” value (BTBR mice [2]; single injection 0.05 mg/kg) was “significantly reduced”. The “short-term and long-term memory” value (BTBR mice [3]; 0.0125 mg/kg) was “no significant effects”, the “long-term (24 h) memory” value (BTBR mice [3]; 0.05 mg/kg) was “improved” and the “short-term (30 min) memory” value (BTBR mice [3]; 0.05 mg/kg) was “improved”. For the same compound, the “short-term and long-term memory” value (BTBR mice [3]; 0.1 mg/kg) was “no significant effects”, the “context-dependent fear memory on Day 1 and Day 14” value (BTBR mice [3]; daily 0.05 mg/kg for 14 days) was “improved” and the “tolerance to effects on cognitive deficit” value (BTBR mice [3]; daily 0.05 mg/kg for 14 days) was “does not cause tolerance”. The “spatial learning in context-dependent fear conditioning” value (BTBR mice [3]; low-dose CLZ (FIG. 10)) was “rescued”, the “Dose in humans for anti-anxiety, anti-convulsive, or sedative effects: equivalent dose to 10 mg diazepam” value ([4]; Table 1, values marked *) was 0.5 mg and the “dose of equivalent efficacy to 10 mg of diazepam” value [4] was 0.5 mg. For the same compound, the “social interaction and stereotyped behavior” value (C57BL/6J mice [5]) was “unaffected”, the “social interaction and stereotyped behavior” value (C57BL/6J mice [5]; listed as CLZ) was “no significant effect” and the “nose-to-nose interaction with stranger mouse” value (BTBR mice [6]) was “significantly enhanced”. For the same compound, the “total (reciprocal) social interaction with stranger mouse” value (BTBR mice [6]) was “significantly enhanced”, the “nose-to-nose interaction with stranger mouse” value (BTBR mice [6]; listed as CLZ) was “reversibly increases” and the “total (reciprocal) social interaction with stranger mouse” value (BTBR mice [6]; listed as CLZ) was “reversibly increases”. For the same compound, the “stereotyped circling behavior in open field with stranger mouse” value (BTBR mice [6]; low dose (FIG. 8C)) was “reduces”, the half-life ([7]; in vivo) was 30 to 40 h and the half-life in vivo ([7]; mouse washout experiment) was 12 h.

In the case of `Cn1ncnc1COc1nn2c(-c3cc(F)ccc3F)nnc2cc1C(C)(C)C` [L-838,417], the “substitution for chlordiazepoxide in animals” value ([8]; drug discrimination) is listed as “substitutes for the anxiolytic benzodiazepine chlordiazepoxide”, the “substitution for zolpidem in animals” value ([8]; drug discrimination) is listed as “not for the hypnotic imidazopyridine drug zolpidem” and the “sedative effects in animal studies” value ([8]; even at high doses) is listed as “no sedative effects”. For the same compound, the “long-term (24 h) memory” value (BTBR mice [3]; 0.05 mg/kg) was “improved”, the “short-term (30 min) memory” value (BTBR mice [3]; 0.05 mg/kg) was “improved” and the “memory of the spatial context” value (BTBR mice [3]; 0.05 mg/kg 30 min before training session and 24-h memory session) was “substantially improved”. For the same compound, the “spatial learning behavior (FIG. 13B legend)” value (BTBR mice [3]; 0.05 mg/kg, legend body prints DS mice, title BTBR mice) was “substantially rescued”.
